Read-outs that look alike come from different tables or passages of the source.
Experiments:
cyclooxygenases = biological target: T1, cyclooxygenases (Homo sapiens, UniProt P23219); assay: COX inhibition in human piastrines (Tromboxan B2 level); assay type: cell-based; details: for COX inhibition (%): 5.10^-5 M; for COX inhibition (%) / inhibition at 100 µM / inhibition at 10 µM: % referred to controls (adding of the aggregating substance only); for inhibition at 100 µM: 10^-4 M; for inhibition at 10 µM: 10^-5 M
T1 construct: endogenous in cells; host or cells: human platelets
T1 sequence (P23219 24-599): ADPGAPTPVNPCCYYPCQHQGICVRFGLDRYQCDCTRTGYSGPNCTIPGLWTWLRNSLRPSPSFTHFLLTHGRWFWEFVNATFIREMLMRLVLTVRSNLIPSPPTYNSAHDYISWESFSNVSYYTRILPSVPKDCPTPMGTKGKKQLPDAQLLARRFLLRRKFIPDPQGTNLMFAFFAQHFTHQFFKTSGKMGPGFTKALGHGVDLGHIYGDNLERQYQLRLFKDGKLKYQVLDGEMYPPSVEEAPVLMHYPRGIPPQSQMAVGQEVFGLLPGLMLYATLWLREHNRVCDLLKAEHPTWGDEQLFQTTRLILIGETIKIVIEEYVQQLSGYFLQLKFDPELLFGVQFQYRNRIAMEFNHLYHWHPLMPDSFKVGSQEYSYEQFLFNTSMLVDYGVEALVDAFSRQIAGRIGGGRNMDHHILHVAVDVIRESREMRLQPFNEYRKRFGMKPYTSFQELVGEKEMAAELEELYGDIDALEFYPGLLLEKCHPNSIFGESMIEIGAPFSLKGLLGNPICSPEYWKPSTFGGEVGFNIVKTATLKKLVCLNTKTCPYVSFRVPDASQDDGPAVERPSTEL
Procedure: (§1) For the in vitro tests (piastrinic tests) the nitroderivatives, 1 mmol, were dissolved in dimethylsulfoxide and then diluted according to the concentrations listed in the Table.
(§2) Aspirin ASA 30 mmols was dissolved in a mixture of etanol:H2 O in the range 1:10 by volume and then diluted according to the concentrations listed in the Table.
The inhibition activity of the cyclooxygenases was determined in human piastrines according to the method described by Patrono et al (Thrombosis Res. 17, 317, 1980). The enzimatic activity was expressed as level of Tromboxan B2 (TX B2) and measured in ng/ml.

[1] = test system: human piastrines stimulated by arachidonic acid; assay: Anti-aggregating piastrinic activity, aggregation induced by arachidonic acid; assay type: cell-based; details: Platelet; for activity at 10 µM / activity at 100 µM: read-out: Piastrinic aggregation (%) induced by arachidonic acid
Procedure: as §1, §2

[2] = test system: intestinal gastric mucose; assay: Gastric tolerability, oral, in the rat; assay type: in vivo; details: for Gastric damage: oral; for Gastric tolerance: in vivo
Procedure: In the in vivo studies (for example toxicity) the products obtained above were administered in form of suspension in carboxymethylcellulose 1-2% by weight.
The gastric tolerability was evaluated through oral subministration in the rat measuring the seriousness of the gastropathie induced according to the criterium indicated by Wallace et al. (Am. J. Physiol. 259, G642, 1990).

[3] = test system: human piastrines stimulated by trombin; assay: Anti-aggregating piastrinic activity, aggregation induced by trombin; assay type: cell-based; details: for activity at 10 µM / activity at 100 µM / activity at 1000 µM: read-out: Piastrinic aggregation (%) induced by trombin
Procedure: as §1, §2

[4] = test system: calcium concentration inside the piastrine; assay: Intracellular piastrinic calcium; assay type: cell-based; details: from 10^-5 to 10^-4 M
Procedure: as §1, §2
The effect of the compounds of the invention or comparison compounds on the calcium concentration inside the piastrine was measured according to the method of Pollock et al. (Biochem. J. 235, 869, 1986).

piastrinic adhesion = assay: Piastrinic adhesion; assay type: cell-based; details: from 10^-5 to 10^-4 M
Procedure: as §1, §2
The inhibition activity of the piastrinic adhesion was evaluated according to the method described by Bellavite et al. (Anal. Biochem. 216, 444, 1994).

[5] = 10^-4 M, % referred to controls (adding of the aggregating substance only)
[6] = 10^-5 M, % referred to controls (adding of the aggregating substance only)
[7] = Homo sapiens, Platelet, 10^-4 M, % referred to controls (adding of the aggregating substance only)

Row | SMILES | COX inhibition (%) (cyclooxygenases) | inhibition at 100 µM (cyclooxygenases) [%] | inhibition at 10 µM (cyclooxygenases) [%] | activity at 100 µM [1, 5] [%] | activity at 10 µM [1, 6] [%] | Gastric tolerance [2] | Gastric damage ([2]; 250-500 mg/Kg) | activity at 100 µM [3, 7] [%] | further results
1 | CC(=O)Oc1ccccc1C(=O)O [ASA, acetylsalicilic acid] | 3 | 1 | – | – | – | – | – | – | activity at 10 µM [1]: 40%; activity at 100 µM [1]: 0%; Gastric damage ([2]; 50-100 mg/Kg): severe damages; activity at 10 µM ([3]; Homo sapiens, Platelet): 100%; activity at 100 µM ([3]; Homo sapiens, Platelet): 100%; activity at 1000 µM ([3]; Homo sapiens, Platelet): 80%
2 | CC(=O)Oc1ccccc1C(=O)OCCCCO[N+](=O)[O-] [ANBE, 2-acetoxy-benzoate of (4-nitroxy)butyl] | 70 | 30 | 80 | 50 | 100 | very well tolerated in the gastric mucose | did not produce relevant damages | 60 | activity at 1000 µM ([1]; 10^-3 M, % referred to controls (adding of the aggregating substance only)): 20%; activity at 1000 µM ([3]; Homo sapiens, Platelet, 10^-3 M, % referred to controls (adding of the aggregating substance only)): 50%
3 | CC(=O)Oc1ccccc1C(=O)Oc1cccc(CO[N+](=O)[O-])c1 [ANMPE, 2-acetoxy-benzoate of (3-nitroxymetyhyl)fenyl] | 2 | – | 5 | 0 | 60 | very well tolerated in the gastric mucose | did not produce relevant damages | 0 | COX inhibition, comparison in words (cyclooxygenases; versus ASA and ANBE): activities similar to ASA, but well higher with respect to ANBE; activity at 50 µM ([1]; 5.10^-5 M, % referred to controls (adding of the aggregating substance only)): 10%; Inhibition of intracellular piastrinic calcium [4]: efficient in inhibiting significantly and in a dose-dependent way; activity at 50 µM ([3]; Homo sapiens, Platelet, 5.10^-5 M, % referred to controls (adding of the aggregating substance only)): 40%; activity at 10 µM ([3]; Homo sapiens, Platelet, 10^-5 M, % referred to controls (adding of the aggregating substance only)): 70%; Inhibition of piastrinic aggregation induced by trombin, comparison in words ([3]; versus ASA and ANBE): values surprisingly higher both with respect to ANBE and ASA; Inhibition of piastrinic adhesion (piastrinic adhesion): efficient in inhibiting significantly and in a dose-dependent way

Reference: patent publication US6040341A, “Compounds and their compositions having anti-inflammatory and anti-thrombotic activities” (Nicox S.A., priority 1995, dated 2000)
